≈ marks a conversion by molar mass, not a printed value.
Columns and labels:
HBV [1] = settings: literature report; cited from earlier work
HBV [2] = assay: Anti-HBV effect in HepG2 2. 2. 15 cell line; format: cell-based, Hepatitis B Virus
Method: (§1) Anti-HBV effect of 1-(5-hydroxymethyl-1,4-dioxan-2-yl)thymine, one of the desired product of the present invention prepared in Example 38, was tested in HepG2 2. 2. 15 cell line. The resultant Effective Concentration (Ec50, EC90), Cytotoxic Concentration (CC50) and Selectivity Index (SI) are shown in the Table below.

[3] = Cytotoxic Concentration in HepG2 2. 2. 15 cell line; format: cell-based; settings: human, hepg2 2.2.15 cells
Method: as §1

Row | Compound | anti-HBV activity (in words) (HBV [1]) | also measured
1 | Nc1nc(=O)n(C2CCC(CO)O2)cc1F [2'3'-dideoxy-β-L-5-fluoro-cytidine] | showing anti-HBV activity | 
2 | Nc1ccn([C@H]2CS[C@@H](CO)O2)c(=O)n1 [2',3'-dideoxy-3'-thiacytidine] | showing anti-HBV activity | 
3 | Nc1ccn(C2CCC(CO)O2)c(=O)n1 [2',3'-dideoxy-β-L-cytidine] | showing anti-HBV activity | 
4 | Nc1nc(=O)n([C@H]2CS[C@@H](CO)O2)cc1F [5-fluoro-2',3'-dideoxy-3'-thiacytidine] | showing anti-HBV activity | 
5 | Cc1cn(C2COC(CO)CO2)c(=O)[nH]c1=O (centres unmarked) [Compound of Ex.38, 1-(5-hydroxymethyl-1,4-dioxan-2-yl)thymine] |  | SI (CC50/EC50) (Selectivity Index) (HBV [2]; CC50/EC50): 188; EC50 (HBV [2]; Hepatitis B virus, HepG2 2.2.15, read-out: EC50 (Effective Concentration)): 4.5 µg/mL (≈ 18.6 µM); EC90 (HBV [2]; Hepatitis B virus, HepG2 2.2.15, read-out: EC90 (Effective Concentration)): 15 µg/mL (≈ 61.9 µM); CC50 [3]: 846 µg/mL (≈ 3490 µM)

— patent US6034087A, “Nucleoside derivatives and process for preparing thereof” (priority 1994, dated 2000)
